Laboratory results reported in patent publication US20230242526A1 (Zentaur Therapeutics International Limited, priority 2020, published 2023).
pIC50: −log10 of the molar value.

How the values were obtained:
[1] = Pharmacokinetic profiling in mouse (i.v. and i.g.); assay type: in vivo, male ICR mice; settings: male, ICR, plasma; for Vd: read-out: Vdss; for bioavailability: calculated by using the AUC0-t, read-out: F (bioavailability)
Method: (1). Kolliphor® HS 15 (formerly regarded as Solutol® HS 15) a non-ionic surfactant, was used as a solubilizer in preparing the parenteral formulations; (2). DMA (N,N-dimethylacetamide); (3). saline; and (4). Tween 80; (5) acetyl nitrile. […] To a glass flask was added 6.0 μmol of the test compound, and 0.265 mL of DMA. The glass flask was vortexed to allow the complete dissolution of the solid. Then 0.265 mL of 30% Solution HS 15 was added to the test compound solution in DMA and was vortexed to allow homogeneous mixing. Lastly, 2.12 mL of saline was added to the mixture in the glass flask. The flask was vortexed to allow homogeneous mixing. […] A clear liquid test sample iv formulation was obtained. An aliquot of 100 μL of the test sample iv formulation was placed into a 1.5 mL EP tube and was kept at 2-8° C. for future sample concentration quantification by HPLC. […] To a glass flask was added 27 μmol of the test compound and 4.047 mL of 0.5% MC with 01. % Tween 80. The flask and the mixture was vortexed followed by sonication for about 15 minutes to allow even distribution of the solids. A white suspension of the text sample was obtained. […] Ltd. Before receiving the test compound formulations, the animals were on fasting overnight. On the day of dosing, the animals were fed at 4h after the dosing. During the tests, the animals were free to drink water. Each test compound was tested in duplicate with different routes of administration: in one set of tests, mice received test compounds by iv injection route, and in the other set of tests, mice received the test compounds by IG administration. The schedules of the test for each mouse are illustrated in Table 5 below. [table] 100 μL blood sample was taken from the veins in animal eyelid. The whole blood sample was placed in anticoagulation tubes treated with EDTA-K2. The whole blood sample was centrifuged at 1500 g for 10 min. The plasma at the upper level was collected into test tubes. An aliquot of 10 μL of sample was added with 100 μL ACN which contains of Verapamil, 5 ng/mL, Glibenclamide, 50 ng/mL, Tolbutamide, 200 ng/mL and Diclofenac, 200 ng mL-1 for protein precipitation. The mixture was vortexed for 1 min, then centrifuged at 13000 rpm for 8 min. Then 70 μL of supernatant was added with 70 μL water, then vortexed for 10 min. An aliquot of 5 μL of the mixture was injected into the LC-MS/MS system. LC-MS/MS (API 4000: LC-MS-MS-001), column: […] Sample injection volume is 5 μL. Flow rate is 0.8 mL/min. The detection wavelength is set at 254 nm.

CDK9/Cyclin T1 = CDK9/Cyclin T1 (Homo sapiens, UniProt P50750); test: CDK9/Cyclin T1 kinase assay; assay type: biochemical
Method: (1). Recombinant enzymes CDK1, CDK2, CDK4, CDK6, CDK9, cyclin B1, cyclin A2, cyclin D3, cyclin E1, cyclin T1 were cloned and purified at Wuxi Biortus Biochemistry Co. Ltd.
(8) Peptide substrate-CDK9 (Ahx-GSRTPMY-NH2, Scilight-Peptide, Cat. C0769102).
The test compounds were dissolved and diluted in DMSO. A stock DMSO solution of the test compound of the invention was prepared by dissolving the compound in DMSO to form a 10 mM solution.
2 μL of testing compound solutions and 5 μL of enzyme solution were added into the 384-well microplate followed by a 10 minute incubation. The reaction was then initiated by the addition of 5 μL of peptide substrate and ATP mixture solution and incubated at 27° C. for 30 minutes. The enzyme reaction in each well was terminated by adding 4 μL of 120 mM EDTA solution. Each assay was carried out in duplicates.
DMSO was used as negative control (0%) for enzyme activity. 20 μM Staurosporine was used as positive control (100%) for enzyme activity.
Plates were read for fluorescence on a Caliper EZ Reader II by separating the fluorescent labeled substrate from the enzyme phosphorylation product by electrophoresis. Data were collected and analyzed using GraphPad Prism version 6.0 software.
Dose-response curves were plotted from inhibition data generated, each in duplicate, from 10 point serial dilutions of inhibitory compounds. Concentration of compound was plotted against % kinase activity. To generate IC50 values, the dose-response curves were then fitted to a standard sigmoidal curve and IC50 values were derived by nonlinear regression analysis.

[2] = system: human ovarian carcinoma OVCAR3 cell line; test: CyQUANT Direct cell proliferation assay, OVCAR-3; assay type: cell-based; settings: OVCAR-3, 168 h, 7 days
Source text: The human ovarian carcinoma OVCAR3 cell line (ATCC HTB-161™) or human breast squamous HCC1806 cell line (ATCC CRL 2335) were obtained from American Type Culture Collection (ATCC), and maintained in culture media according to the supplier's specification.
The CyQUANT® Direct Cell Proliferation Assay Kit (Invitrogen™, catalog No. G35012) was utilized to test the inhibitory activities of the CDK2 inhibitors described in this disclosure against OVCAR3 or HCC1806 tumor cells.
CyQUANT® Direct Cell Proliferation Assay: The spent medium from the purchased tumor cell culture plate was removed and the tumor cells were washed with PBS buffer twice. Trypsin (VWR catalog No. 0458-25G) was added to digest the tumor cells until tumor cells appeared round shaped and to dissociate adherent cells from the plate wall in which they are being cultured. Then RPMI-1640 media (HCC1806, Gibco™ catalog No, A10491-01) with 10% fetal bovine serum (FBS) (Hyclone™ catalog No. SV30160.03), or RPMI-1640 media (OVCAR-3, Gibco™ catalog No. 10370-021) with 20% FBS and 0.01 mg/mL insulin was added to stop the trypsin digestion reaction. The tumor cells were lightly agitated with a liquid transfer pipette to cause tumor cells suspended in the culture media. The cells were counted. The complete medium was used to prepare tumor cell suspension.
OVCAR3 or HCC1806 cells were seeded at 40 μL/well in 384-well plates in growth media containing FBS and cultured 24 hours in the incubator at 37° C., 5% CO2. […] Compound solutions were added by Agilent Bravo liquid handler. […] The control wells contained the growth medium having 0.1% DMSO. Cells were incubated at 37° C., 5% CO2 for 7 days.
CYQUANT Direct Cell Proliferation Assay (Molecular Probes, Eugene, Oreg.) was then performed following manufacturer's instructions to prepare the detection reagents. 50 μL of detection reagent was aliquot and added to each well and the cells were incubated at 37° C. for 1 hr.
The cell culture plates were placed on TECAN M1000 microplate reader to detect the fluorescence intensity at 508 nm excitation and 527 nm emission wavelengths. Graphpad Prism 6.0 software was used for data processing, preparing cell growth curve, calculating percentage inhibition on cell growth. IC50 values were calculated by concentration-response curve fitting utilizing a four-parameter analytical method using GraphPad Prism software.

Chain of CDK9/Cyclin T1 (P50750 whole entry): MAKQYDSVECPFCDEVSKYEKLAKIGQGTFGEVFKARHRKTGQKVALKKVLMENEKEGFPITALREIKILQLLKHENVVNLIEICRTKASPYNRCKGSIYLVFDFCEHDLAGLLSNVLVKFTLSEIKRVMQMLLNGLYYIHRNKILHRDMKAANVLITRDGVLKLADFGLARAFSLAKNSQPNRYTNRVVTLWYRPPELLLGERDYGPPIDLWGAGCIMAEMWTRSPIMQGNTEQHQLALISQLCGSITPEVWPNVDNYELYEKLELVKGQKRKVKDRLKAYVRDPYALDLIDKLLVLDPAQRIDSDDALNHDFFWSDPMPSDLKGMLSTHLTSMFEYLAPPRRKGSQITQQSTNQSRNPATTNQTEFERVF
Chain of CDK9/Cyclin T1 (O60563 whole entry partner): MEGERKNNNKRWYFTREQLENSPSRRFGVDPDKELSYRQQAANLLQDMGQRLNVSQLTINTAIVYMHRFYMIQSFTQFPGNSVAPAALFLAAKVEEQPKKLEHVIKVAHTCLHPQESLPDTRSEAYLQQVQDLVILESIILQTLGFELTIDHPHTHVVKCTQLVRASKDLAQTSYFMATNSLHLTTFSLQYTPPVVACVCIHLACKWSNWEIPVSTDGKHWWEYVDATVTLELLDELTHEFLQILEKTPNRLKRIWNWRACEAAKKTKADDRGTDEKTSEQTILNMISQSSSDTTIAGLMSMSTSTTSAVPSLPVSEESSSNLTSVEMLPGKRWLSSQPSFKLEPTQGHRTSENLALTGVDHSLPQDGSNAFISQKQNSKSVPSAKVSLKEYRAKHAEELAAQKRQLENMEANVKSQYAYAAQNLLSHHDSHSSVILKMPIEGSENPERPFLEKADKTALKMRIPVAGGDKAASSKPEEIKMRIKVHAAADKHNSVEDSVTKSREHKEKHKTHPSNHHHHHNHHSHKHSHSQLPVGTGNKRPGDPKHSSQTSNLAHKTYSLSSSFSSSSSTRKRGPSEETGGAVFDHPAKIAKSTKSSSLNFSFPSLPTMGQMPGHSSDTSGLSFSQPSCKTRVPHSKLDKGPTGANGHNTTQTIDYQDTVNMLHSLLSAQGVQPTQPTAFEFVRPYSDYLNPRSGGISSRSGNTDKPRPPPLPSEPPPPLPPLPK

Compound | AUC(0-t) ([1]; iv, i.v. 5 mg/kg) [ng·h/mL] | C0 ([1]; iv, i.v. 5 mg/kg) [ng/mL] | clearance ([1]; iv, i.v. 5 mg/kg) [mL/min/kg] | half-life ([1]; iv, i.v. 5 mg/kg) [min] | Vd ([1]; iv, i.v. 5 mg/kg) [L/kg] | AUC(0-t) ([1]; po, i.g. 30 mg/kg) [ng·h/mL] | Cmax ([1]; po, i.g. 30 mg/kg) [ng/mL] | Tmax ([1]; po, i.g. 30 mg/kg) [min] | half-life ([1]; po, i.g. 30 mg/kg) [min] | bioavailability ([1]; po, i.g. 30 mg/kg) [%] | pIC50 (CDK9/Cyclin T1) | pIC50 [2]
Cc1cc2cnc(NC3CCN(S(C)(=O)=O)CC3)nc2n([C@@H]2CCC[C@@]2(C)O)c1=O [Comp. 4, (−)-8-(2-hydroxy-2-methylcyclopentyl)-6-methyl-2-((1-(methylsulfonyl)piperidin-4-yl)amino)pyrido[2,3-d]pyrimidin-7(8H)-one, reference compound] | 967 | 8300 | 86.1 | 11.7 | 0.611 | 245 | 211 | 15 | 134 | 4.2 | – | –
[2H]C([2H])([2H])c1cc2cnc(NC3CCN(S(C)(=O)=O)CC3)nc2n([C@@H]2CCC[C@@]2(C)O)c1=O [Comp. 37, (−)-8-((1R,2R)-2-hydroxy-2-methylcyclopentyl)-6-(methyl-d3)-2-((1-(methylsulfonyl)piperidin-4-yl)amino)pyrido[2,3-d]pyrimidin-7(8H)-one] | 1290 | 7420 | 64.7 | 19.8 | 0.703 | 605 | 522 | 15 | 103 | 7.8 | – | –
C[C@@]1(O)CCC[C@H]1n1c(=O)c(C(F)F)cc2cnc(NC3CCN(S(C)(=O)=O)CC3)nc21 [Comp. 5, (−)-6-(difluoromethyl)-8-((1R,2R)-2-hydroxy-2-methylcyclopentyl)-2-((1-(methylsulfonyl)piperidin-4-yl)amino)pyrido[2,3-d]pyrimidin-7(8H)-one, reference compound] | 1360 | 5020 | 61.2 | 22 | 1 | 1190 | 1040 | 15 | 166 | 14.6 | 5.46 | 7.39
[2H]C(F)(F)c1cc2cnc(NC3CCN(S(C)(=O)=O)CC3)nc2n([C@@H]2CCC[C@@]2(C)O)c1=O [Comp. 28, (−)-6-(difluoromethyl-d)-8-((1R,2R)-2-hydroxy-2-methylcyclopentyl)-2-((1-(methylsulfonyl)piperidin-4-yl)amino)pyrido[2,3-d]pyrimidin-7(8H)-one] | – | – | – | – | – | – | – | – | – | – | 5.44 | 7.49
